Reference: US7342005B2, “Antibiotic compounds” (AstraZeneca UK Limited, priority 1992, dated 2008)
≈ marks a conversion by molar mass, not a printed value. Where two headings read alike, the source gives them in different places.

Experiments:
Assay in all cases: MIC by agar-dilution, Diagnostic Sensitivity Test
Assay type in all cases: cell-based
Settings in all cases: inoculum 10^4 CFU/spot
[1] = system: Enterobacter cloacae 029
Excerpt: (§1) The following results were obtained for representative compounds on a standard in vitro test system using Diagnostic Sensitivity Test. The antibacterial activity is described in terms of the minimum inhibitory concentration (MIC) determined by the agar-dilution technique with an inoculum size of 10^4 CFU/spot.

[2] = system: S. aureus 147N
Excerpt: as §1

[3] = system: Enterobacter cloacae 108
Excerpt: as §1

[4] = system: E. coli TEM
Excerpt: as §1

For `C[C@@H](O)[C@H]1C(=O)N2C(C(=O)O)=C(S[C@@H]3CN[C@H](C(=O)Nc4cc(O)cc(C(=O)O)c4)C3)[C@H](C)[C@H]12` [Example 1, (1R,5S,6S,8R,2′S,4′S)-2-(2-(3-Carboxy-5-hydroxyphenylcarbamoyl)-pyrrolidin-4-yl-thio)-6-(1-hydroxyethyl)-1-methylcarbapenem-3-carboxylic acid], the MIC [1] was 0.06 µg/mL (≈ 0.122 µM), the MIC [2] was 0.25 µg/mL (≈ 0.509 µM) and the MIC [3] was 1.00 µg/mL (≈ 2.03 µM). It also gave an MIC [4] of 0.03 µg/mL (≈ 0.061 µM).
`CC(O)C1C(=O)N2C(C(=O)O)=C(SC3CNC(C(=O)Nc4ccc(Cl)c(C(=O)O)c4)C3)C(C)[C@H]12` (stereo partly drawn) [Example 2, (1R,5S,6S,8R,2′S,4′S)-2-(2-(3-Carboxy-4-chlorophenylcarbamoyl)-pyrrolidin-4-ylthio)-6-(1-hydroxyethyl)-1-methylcarbapenem-3-carboxylic acid] showed an MIC [1] of 0.03 µg/mL (≈ 0.0588 µM), an MIC [2] of 0.50 µg/mL (≈ 0.98 µM) and an MIC [3] of 1.00 µg/mL (≈ 1.96 µM). The MIC [4] was 0.02 µg/mL (≈ 0.0392 µM).
With `CC(O)C1C(=O)N2C(C(=O)O)=C(SC3CNC(C(=O)Nc4cccc(C(=O)O)c4)C3)C(C)[C@H]12` (stereo partly drawn) [Example 4, (1R,5S,6S,8R,2′S,4′S)-2-(2-(3-Carboxyphenylcarbamoyl)pyrrolidin-4-ylthio) -6-(1-hydroxyethyl)-1-methylcarbapenem-3-carboxylic acid] the MIC [1] was 0.03 µg/mL (≈ 0.0631 µM), the MIC [2] was 0.25 µg/mL (≈ 0.526 µM) and the MIC [3] was 0.50 µg/mL (≈ 1.05 µM). For the same molecule, the MIC [4] was 0.02 µg/mL (≈ 0.0421 µM).
`C[C@@H](O)[C@H]1C(=O)N2C(C(=O)O)=C(S[C@@H]3CN[C@H](C(=O)Nc4ccc(O)c(C(=O)O)c4)C3)[C@H](C)[C@H]12` [Example 10, (1R,5S,6S,8R,2′S,4′S)-2-(2-(3-Carboxy-4-hydroxyphenylcarbamoyl)pyrrolidin-4-ylthio)-6-(1-hydroxyethyl)-1-methylcarbapenem-3-carboxylic acid] was tested, and the MIC [1] was 0.01 µg/mL (≈ 0.0203 µM), the MIC [2] was 0.13 µg/mL (≈ 0.264 µM) and the MIC [3] was 0.25 µg/mL (≈ 0.509 µM). The MIC [4] was 0.01 µg/mL (≈ 0.0203 µM).
In the case of `CO/N=C(\C(=O)N[C@@H]1C(=O)N2C(C(=O)O)=C(CSc3nc(=O)c(=O)[nH]n3C)CS[C@H]12)c1csc(N)n1` [ceftriaxone, reference compound], the MIC ([1]; read-out: MIC) is reported as 0.06 µg/mL (≈ 0.108 µM), the MIC ([2]; Staphylococcus aureus, read-out: MIC) is reported as 2 µg/mL (≈ 3.61 µM) and the MIC ([3]; read-out: MIC) is reported as 32 µg/mL (≈ 57.7 µM). It also gave an MIC ([4]; Escherichia coli, read-out: MIC) of 0.03 µg/mL (≈ 0.0541 µM).
